In the supplement of paper PMC10307832 one finds relative viability data, which are given here for seven cell lines.

Holding throughout (assay): relative viability (nuclei count vs DMSO), 5 days (fraction); higher = more cells survive
Compound in the assay “Omipalisib + Palbociclib”: COc1ncc(-c2ccc3nccc(-c4ccnnc4)c3c2)cc1NS(=O)(=O)c1ccc(F)cc1F [Omipalisib] + CC(=O)c1c(C)c2cnc(Nc3ccc(N4CCNCC4)cn3)nc2n(C2CCCC2)c1=O [Palbociclib] (partner 0.5 µM)
In short, it runs like this:
(§1)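 Medians of duplicate plates are given as relative viability. That measure is the nuclei count in treated wells divided by the count in vehicle wells. Counts were taken on 4× images of lung cancer cell lines in 1536-well plates, 5 days after pin-tool dosing the day after seeding with one drug alone or a fixed anchor-drug dose plus five library-drug doses (not always all listed) in √10 steps.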

Compound in the assay “Omipalisib + Foretinib”: COc1ncc(-c2ccc3nccc(-c4ccnnc4)c3c2)cc1NS(=O)(=O)c1ccc(F)cc1F [Omipalisib] + COc1cc2c(Oc3ccc(NC(=O)C4(C(=O)Nc5ccc(F)cc5)CC4)cc3F)ccnc2cc1OCCCN1CCOCC1 [Foretinib] (partner 0.25 µM)
In short, it runs like this:
as §1

Compound in the assay “Omipalisib + OSI-027”: COc1ncc(-c2ccc3nccc(-c4ccnnc4)c3c2)cc1NS(=O)(=O)c1ccc(F)cc1F [Omipalisib] + COc1cccc2cc(-c3nc([C@H]4CC[C@H](C(=O)O)CC4)n4ncnc(N)c34)[nH]c12 [OSI-027] (partner 0.5 µM)
The essentials:
as §1

Compound in the assay “Omipalisib + Crizotinib”: COc1ncc(-c2ccc3nccc(-c4ccnnc4)c3c2)cc1NS(=O)(=O)c1ccc(F)cc1F [Omipalisib] + C[C@@H](Oc1cc(-c2cnn(C3CCNCC3)c2)cnc1N)c1c(Cl)ccc(F)c1Cl [Crizotinib] (partner 1 µM)
The essentials:
as §1

Compound in the assay “Omipalisib + Dasatinib”: COc1ncc(-c2ccc3nccc(-c4ccnnc4)c3c2)cc1NS(=O)(=O)c1ccc(F)cc1F [Omipalisib] + Cc1nc(Nc2ncc(C(=O)Nc3c(C)cccc3Cl)s2)cc(N2CCN(CCO)CC2)n1 [Dasatinib] (partner 0.075 µM)
In short, it runs like this: as §1

Compound in the assay “Omipalisib + Pemetrexed”: COc1ncc(-c2ccc3nccc(-c4ccnnc4)c3c2)cc1NS(=O)(=O)c1ccc(F)cc1F [Omipalisib] + Nc1nc2[nH]cc(CCc3ccc(C(=O)N[C@@H](CCC(=O)O)C(=O)O)cc3)c2c(=O)[nH]1 [Pemetrexed] (partner 0.2 µM)
The essentials:
as §1

PC-14: the relative viability is 0.521 with Omipalisib + Palbociclib (first compound 0.0003 µM); 0.614 in the assay with Omipalisib + Palbociclib (first compound 0.003 µM); 0.327 in the assay with Omipalisib + Palbociclib (first compound 0.03 µM); 0.904 with Omipalisib + Foretinib (first compound 0.0003 µM); 0.961 in the assay with Omipalisib + Foretinib (first compound 0.003 µM); 0.967 with Omipalisib + Foretinib (first compound 0.03 µM). Besides, the relative viability in the assay with Omipalisib + OSI-027 (first compound 0.0003 µM) is 0.761; with Omipalisib + OSI-027 (first compound 0.003 µM), 0.529; with Omipalisib + OSI-027 (first compound 0.03 µM) it was 0.435; in the assay with Omipalisib + Crizotinib (first compound 0.0003 µM) it was 0.855; in the assay with Omipalisib + Crizotinib (first compound 0.003 µM), 0.912; with Omipalisib + Crizotinib (first compound 0.03 µM) it was 0.799. Besides, the relative viability with Omipalisib + Dasatinib (first compound 0.0003 µM) amounted to 0.31; with Omipalisib + Dasatinib (first compound 0.003 µM), 0.237; with Omipalisib + Dasatinib (first compound 0.03 µM) it was 0.079; with Omipalisib + Pemetrexed (first compound 0.0003 µM), 0.151; with Omipalisib + Pemetrexed (first compound 0.003 µM), 0.155; in the assay with Omipalisib + Pemetrexed (first compound 0.03 µM) it was 0.161.

For NCI-H647, the relative viability with Omipalisib + Palbociclib (first compound 0.0003 µM) was 0.263; with Omipalisib + Palbociclib (first compound 0.003 µM), 0.21; with Omipalisib + Palbociclib (first compound 0.03 µM), 0.179; with Omipalisib + Foretinib (first compound 0.0003 µM), 1.16; in the assay with Omipalisib + Foretinib (first compound 0.003 µM) it was 0.965; with Omipalisib + Foretinib (first compound 0.03 µM), 0.603. Besides, the relative viability with Omipalisib + OSI-027 (first compound 0.0003 µM) stood at 0.547; in the assay with Omipalisib + OSI-027 (first compound 0.003 µM), 0.408; with Omipalisib + OSI-027 (first compound 0.03 µM), 0.264; with Omipalisib + Crizotinib (first compound 0.0003 µM), 0.979; with Omipalisib + Crizotinib (first compound 0.003 µM), 0.921; in the assay with Omipalisib + Crizotinib (first compound 0.03 µM), 0.443. The relative viability in the assay with Omipalisib + Dasatinib (first compound 0.0003 µM) was 0.162; with Omipalisib + Dasatinib (first compound 0.003 µM) it was 0.0952; in the assay with Omipalisib + Dasatinib (first compound 0.03 µM), 0.0677; with Omipalisib + Pemetrexed (first compound 0.0003 µM), 0.189; with Omipalisib + Pemetrexed (first compound 0.003 µM) it was 0.158; in the assay with Omipalisib + Pemetrexed (first compound 0.03 µM) it was 0.183.

As for LCLC-103H, the relative viability came to 0.481 with Omipalisib + Palbociclib (first compound 0.0003 µM); 0.479 with Omipalisib + Palbociclib (first compound 0.003 µM); 0.356 with Omipalisib + Palbociclib (first compound 0.03 µM); 0.676 with Omipalisib + Foretinib (first compound 0.0003 µM); 0.418 in the assay with Omipalisib + Foretinib (first compound 0.003 µM); 0.236 with Omipalisib + Foretinib (first compound 0.03 µM). Moreover, the relative viability with Omipalisib + OSI-027 (first compound 0.0003 µM) was determined as 0.436; with Omipalisib + OSI-027 (first compound 0.003 µM), 0.354; with Omipalisib + OSI-027 (first compound 0.03 µM), 0.313; with Omipalisib + Crizotinib (first compound 0.0003 µM), 1.07; with Omipalisib + Crizotinib (first compound 0.003 µM) it was 0.922; with Omipalisib + Crizotinib (first compound 0.03 µM), 0.63. Besides, the relative viability in the assay with Omipalisib + Dasatinib (first compound 0.0003 µM) worked out at 0.467; with Omipalisib + Dasatinib (first compound 0.003 µM), 0.326; with Omipalisib + Dasatinib (first compound 0.03 µM) it was 0.167; with Omipalisib + Pemetrexed (first compound 0.0003 µM), 0.503; in the assay with Omipalisib + Pemetrexed (first compound 0.003 µM), 0.411; with Omipalisib + Pemetrexed (first compound 0.03 µM), 0.405.

With NCI-H2228, the relative viability was 0.839 in the assay with Omipalisib + Palbociclib (first compound 0.0003 µM); 0.47 with Omipalisib + Palbociclib (first compound 0.003 µM); 0.234 with Omipalisib + Palbociclib (first compound 0.03 µM); 0.957 with Omipalisib + Foretinib (first compound 0.0003 µM); 0.74 with Omipalisib + Foretinib (first compound 0.003 µM); 0.25 in the assay with Omipalisib + Foretinib (first compound 0.03 µM). In addition, the relative viability with Omipalisib + OSI-027 (first compound 0.0003 µM) was 0.506; with Omipalisib + OSI-027 (first compound 0.003 µM), 0.19; with Omipalisib + OSI-027 (first compound 0.03 µM), 0.139; with Omipalisib + Crizotinib (first compound 0.0003 µM), 0.335; with Omipalisib + Crizotinib (first compound 0.003 µM), 0.337; with Omipalisib + Crizotinib (first compound 0.03 µM), 0.215. Besides, the relative viability is 0.43 with Omipalisib + Dasatinib (first compound 0.0003 µM); 0.275 in the assay with Omipalisib + Dasatinib (first compound 0.003 µM); 0.133 with Omipalisib + Dasatinib (first compound 0.03 µM); 0.351 with Omipalisib + Pemetrexed (first compound 0.0003 µM); 0.306 with Omipalisib + Pemetrexed (first compound 0.003 µM); 0.221 with Omipalisib + Pemetrexed (first compound 0.03 µM).

As for NCI-H2085, the relative viability with Omipalisib + Palbociclib (first compound 0.0003 µM) came out at 0.553; with Omipalisib + Palbociclib (first compound 0.003 µM), 0.479; with Omipalisib + Palbociclib (first compound 0.03 µM) it was 0.33; in the assay with Omipalisib + Foretinib (first compound 0.0003 µM), 0.95; with Omipalisib + Foretinib (first compound 0.003 µM), 0.884; with Omipalisib + Foretinib (first compound 0.03 µM) it was 0.26. In addition, the relative viability amounted to 0.776 with Omipalisib + OSI-027 (first compound 0.0003 µM); 0.349 with Omipalisib + OSI-027 (first compound 0.003 µM); 0.315 with Omipalisib + OSI-027 (first compound 0.03 µM); 0.789 with Omipalisib + Crizotinib (first compound 0.0003 µM); 0.886 with Omipalisib + Crizotinib (first compound 0.003 µM); 0.407 with Omipalisib + Crizotinib (first compound 0.03 µM). In addition, the relative viability with Omipalisib + Dasatinib (first compound 0.0003 µM) worked out at 0.258; in the assay with Omipalisib + Dasatinib (first compound 0.003 µM), 0.194; in the assay with Omipalisib + Dasatinib (first compound 0.03 µM) it was 0.227; with Omipalisib + Pemetrexed (first compound 0.0003 µM), 0.986; with Omipalisib + Pemetrexed (first compound 0.003 µM), 0.855; with Omipalisib + Pemetrexed (first compound 0.03 µM), 0.406.

Turning to H3255, the relative viability was 0.365 with Omipalisib + Palbociclib (first compound 0.0003 µM); 0.313 with Omipalisib + Palbociclib (first compound 0.003 µM); 0.285 in the assay with Omipalisib + Palbociclib (first compound 0.03 µM); 0.731 with Omipalisib + Foretinib (first compound 0.0003 µM); 0.669 with Omipalisib + Foretinib (first compound 0.003 µM); 0.494 with Omipalisib + Foretinib (first compound 0.03 µM). Moreover, the relative viability in the assay with Omipalisib + OSI-027 (first compound 0.0003 µM) was determined as 0.546; with Omipalisib + OSI-027 (first compound 0.003 µM) it was 0.45; with Omipalisib + OSI-027 (first compound 0.03 µM), 0.299; with Omipalisib + Crizotinib (first compound 0.0003 µM), 0.859; with Omipalisib + Crizotinib (first compound 0.003 µM) it was 0.811; in the assay with Omipalisib + Crizotinib (first compound 0.03 µM), 0.421. For the same cell line, the relative viability amounted to 0.336 with Omipalisib + Dasatinib (first compound 0.0003 µM); 0.325 with Omipalisib + Dasatinib (first compound 0.003 µM); 0.257 with Omipalisib + Dasatinib (first compound 0.03 µM); 0.576 in the assay with Omipalisib + Pemetrexed (first compound 0.0003 µM); 0.577 with Omipalisib + Pemetrexed (first compound 0.003 µM); 0.469 with Omipalisib + Pemetrexed (first compound 0.03 µM).

With LK-2, the relative viability with Omipalisib + Palbociclib (first compound 0.0003 µM) stood at 0.421; with Omipalisib + Palbociclib (first compound 0.003 µM), 0.203; with Omipalisib + Palbociclib (first compound 0.03 µM), 0.225; with Omipalisib + Foretinib (first compound 0.0003 µM), 0.832; in the assay with Omipalisib + Foretinib (first compound 0.003 µM), 0.553; in the assay with Omipalisib + Foretinib (first compound 0.03 µM), 0.484. In addition, the relative viability with Omipalisib + OSI-027 (first compound 0.0003 µM) stood at 0.212; with Omipalisib + OSI-027 (first compound 0.003 µM), 0.13; with Omipalisib + OSI-027 (first compound 0.03 µM) it was 0.173; in the assay with Omipalisib + Crizotinib (first compound 0.0003 µM) it was 0.241; in the assay with Omipalisib + Crizotinib (first compound 0.003 µM) it was 0.234; in the assay with Omipalisib + Crizotinib (first compound 0.03 µM), 0.247. Besides, the relative viability in the assay with Omipalisib + Dasatinib (first compound 0.0003 µM) was determined as 0.231; with Omipalisib + Dasatinib (first compound 0.003 µM), 0.151; with Omipalisib + Dasatinib (first compound 0.03 µM), 0.169; with Omipalisib + Pemetrexed (first compound 0.0003 µM), 0.253; with Omipalisib + Pemetrexed (first compound 0.003 µM), 0.211; in the assay with Omipalisib + Pemetrexed (first compound 0.03 µM), 0.16.
